Results on 70 compounds are retold here after ChEMBL document CHEMBL4483862, “Open-source discovery of chemical leads for next-generation chemoprotective antimalarials” (2018).

The assay has as its system Plasmodium berghei. In words: Luciferase/luciferin-expressing antifolate-resistant parasites were used to infect a culture of HepG2 cells that were pre-incubated with compounds. Infected hepatocytes emit light due to the luciferase reaction. Assay results are presented as the percent inhibition of light emission compared to control. […]. It counts as functional. Particulars: sporozoite; for IC50: read-out: LUCIFERASE INFECTION ASSAY - IC50; for IC90: read-out: LUCIFERASE INFECTION ASSAY - IC90.

Take `NC(Cc1ccc(C(F)(F)F)cc1)c1csc(Nc2nncc3ccccc23)n1` (stereo not given): the IC50 is more than 7.94 µM and the 90% effect concentration (IC90) was more than 7.94 µM.

Consider `NC(Cc1ccc(F)cc1)c1csc(Nc2nncc3ccccc23)n1` (stereo not given), for which the half-inhibitory concentration (IC50) was more than 9.03 µM and the IC90 is more than 9.03 µM.

As to `CC(=O)Nc1cc(-c2ccc(C(=O)NC3CC3)cc2)cn2c(-c3ccc(F)c(Cl)c3)cnc12`, the IC50 was more than 7.13 µM and the IC90 was more than 7.13 µM.

As for `CN(C)CCNC(=O)c1ccc(-c2cn3c(-c4ccc(Oc5ccccc5)cc4)cnc3cn2)cc1`, the half-maximal inhibitory concentration (IC50) was 5.8 µM and the IC90 is more than 6.91 µM.

Take `NC(Cc1ccc(F)cc1)c1csc(Nc2cc(NCc3ccco3)ncn2)n1` (stereo not given): the IC50 is more than 8.04 µM and the concentration for an effect of 90% (IC90) is more than 8.04 µM.

On to `Cc1cc(C)nc(Nc2nc(C(N)Cc3ccc(C(F)(F)F)cc3)cs2)n1` (stereo not given), for which the IC50 was more than 8.39 µM and the concentration for an effect of 90% (IC90) was more than 8.39 µM.

`Cc1cnc(C)c(Nc2nc(C(N)Cc3ccc(C(F)(F)F)cc3)cs2)n1` (stereo not given): the concentration for half-maximal inhibition (IC50) is more than 8.39 µM and the IC90 was more than 8.39 µM.

For `CN(C)CCNC(=O)c1cccc(-c2cnc3c(NC=O)cc(-c4cccc(C(F)(F)F)c4)cn23)c1`, the IC50 was more than 6.66 µM and the IC90 is more than 6.66 µM.

As for `CCSc1ccc(-c2cc(NC=O)c3ncc(-c4cccc(C(=O)NCCN(C)C)c4)n3c2)cc1`, the IC50 is more than 6.77 µM and the IC90 was more than 6.77 µM.

For `CCOCCC(=O)Nc1ccc2c(c1)c(=O)n(C)n2Cc1cccc(C(F)(F)F)c1`, the IC50 was more than 7.83 µM and the 90% effect concentration (IC90) is more than 7.83 µM.

Regarding `CCOC(=O)C1(C)CCN1C(=O)c1cc(OC)c(OC)c(OC)c1` (stereo not given), the IC50 is more than 9.78 µM and the 90% effect concentration (IC90) was more than 9.78 µM.

Turning to `CCOC(=O)C1(C)CCCN1C(=O)c1cccs1` (stereo not given), the half-inhibitory concentration (IC50) is more than 12.3 µM and the IC90 is more than 12.3 µM.

Turning to `CCCS(=O)(=O)NC(=O)C1(C)CCCN(C(=O)c2ccccc2OC)C1` (stereo not given), the 50% inhibitory concentration (IC50) was more than 8.63 µM and the IC90 is more than 8.63 µM.

Take `CCCNC(=O)C1(C)CCCN(C(=O)c2cccc(OC(C)=O)c2C)C1` (stereo not given): the IC50 is more than 9.16 µM and the IC90 is more than 9.16 µM.

Take `COc1ccc(-c2cnc3cnc(-c4ccc(N5CCN(C)CC5)cc4)cn23)cn1`: the half-inhibitory concentration (IC50) is more than 8.24 µM and the IC90 was more than 8.24 µM.

As to `CN(C)C(=O)c1cccc(-c2cn3c(-c4ccc(N(C)C)cc4)cnc3cn2)c1`, the IC50 is 4.36 µM and the IC90 is 7.57 µM.

Consider `Clc1ccc(-c2cnc3cnc(-c4ccsc4)cn23)cc1`, for which the IC50 worked out at 2.46 µM and the IC90 came to 8.06 µM.

`CN(C)CCNC(=O)c1ccc(-c2cn3c(-c4ccc(N(C)C)cc4)cnc3cn2)cc1`: the IC50 is more than 7.7 µM and the concentration for an effect of 90% (IC90) was more than 7.7 µM.

`COc1ccc(-c2cnc3sc(NCc4ccncc4)nn23)cc1OC`: the half-maximal inhibitory concentration (IC50) was more than 8.98 µM and the IC90 was more than 8.98 µM.

For the compound `CN(C)C(=O)c1cccc(-c2cnc3c(NC=O)cc(-c4ccsc4)cn23)c1`, the concentration for half-maximal inhibition (IC50) is more than 8.45 µM and the concentration for an effect of 90% (IC90) was more than 8.45 µM.

Consider `N#Cc1ccc(-c2cnc3cnc(-c4cccc(N)c4)cn23)cc1`, for which the IC50 was 2.59 µM and the 90% effect concentration (IC90) is 4.97 µM.

On to `CN1CCN(c2ccc(-c3cn4c(-c5ccc(Oc6ccccc6)cc5)cnc4cn3)cn2)CC1`, for which the IC50 came out at 6.77 µM and the IC90 was more than 7.13 µM.

With `COc1cccc(Cn2c3ccc(NC(=O)CC4CCCCC4)cc3c(=O)n2C)c1`, the IC50 is more than 8.1 µM and the IC90 was more than 8.1 µM.

On to `CN(C)c1ccc(-c2nnc3ccccn23)cc1`, for which the IC50 came to 6.56 µM and the 90% effect concentration (IC90) was more than 13.8 µM.

With `CCCCOc1ccc(Nc2nc(C(N)COCc3ccccc3)cs2)nn1` (stereo not given), the half-maximal inhibitory concentration (IC50) is more than 8.26 µM and the IC90 is more than 8.26 µM.

On to `Cn1c(=O)c2cc(NC(=O)CC(C)(C)C)ccc2n1Cc1ccccc1`, for which the IC50 was more than 9.39 µM and the IC90 is more than 9.39 µM.

With `CCOC(=O)C1CCCN(C(=O)Cc2cccc3ccccc23)CC1` (stereo not given), the IC50 is more than 9.72 µM and the 90% effect concentration (IC90) was more than 9.72 µM.

Turning to `N#Cc1ccccc1S(=O)(=O)NC(=O)Cn1cc(-c2cccc(F)c2)nn1`, the IC50 is more than 8.56 µM and the IC90 is more than 8.56 µM.

As to `COc1cc(-c2cnc3sc(NCC4CCOCC4)nn23)ccc1O`, the half-maximal inhibitory concentration (IC50) is more than 9.16 µM and the IC90 is more than 9.16 µM.

For the compound `COc1cc(-c2cnc3sc(NCc4cccs4)nn23)ccc1O`, the half-maximal inhibitory concentration (IC50) was more than 9.21 µM and the IC90 is more than 9.21 µM.

As for `OCc1ccc(-c2cnc3cnc(-c4cnn(Cc5ccccc5)c4)cn23)cc1`, the IC50 was more than 8.65 µM and the concentration for an effect of 90% (IC90) was more than 8.65 µM.

As to `Cc1nc(C(=O)N2CCC(C)(C(=O)NS(=O)(=O)C3CC3)C2)c(C)o1` (stereo not given), the concentration for half-maximal inhibition (IC50) is more than 9.28 µM and the IC90 was more than 9.28 µM.

As for `CCCCOc1ccc(Nc2nc(C(N)CCc3ccccc3)cs2)nn1` (stereo not given), the IC50 was more than 8.6 µM and the IC90 was more than 8.6 µM.

For the compound `CCC(=O)N1CCCC(C(=O)NCc2ccc(C(C)C)cc2)CC1` (stereo not given), the IC50 is more than 9.99 µM and the 90% effect concentration (IC90) is more than 9.99 µM.

`c1csc(-c2cnc3sc(NCc4ccncc4)nn23)c1`: the IC50 was more than 10.5 µM and the IC90 is more than 10.5 µM.

On to `COc1cccc(-c2cn3c(-c4ccc(CO)cc4)cnc3cn2)c1F`, for which the IC50 amounted to 8.82 µM and the concentration for an effect of 90% (IC90) is more than 9.45 µM.

For the compound `c1cc(NCCN2CCOCC2)ncc1-c1cn2c(-c3ccc4c(c3)OCO4)cnc2cn1`, the IC50 was more than 7.42 µM and the IC90 was more than 7.42 µM.

Turning to `COCC(=O)N1CCCC(C)(C(=O)NCc2cnc(C)cn2)C1` (stereo not given), the concentration for half-maximal inhibition (IC50) was more than 10.3 µM and the IC90 was more than 10.3 µM.

In the case of `Clc1ccccc1-c1cnc2cnc(-c3cnn(Cc4ccccc4)c3)cn12`, the IC50 is more than 8.55 µM and the IC90 is more than 8.55 µM.

Regarding `CCCNC(=O)C1(C)CCN(CCCC(=O)c2ccc(C)c(C)c2)C1` (stereo not given), the IC50 was more than 9.58 µM and the 90% effect concentration (IC90) is more than 9.58 µM.

Regarding `CSc1ccc(-c2cn3c(-c4ccc(CO)cc4)cnc3cn2)cc1`, the IC50 is more than 9.5 µM and the IC90 is more than 9.5 µM.

As to `CN(C)CCCNC(=O)c1ccc(-c2cn3c(-c4cccc(Cl)c4)cnc3cn2)cc1`, the concentration for half-maximal inhibition (IC50) was more than 7.6 µM and the IC90 was more than 7.6 µM.

`OCc1ccc(-c2cnc3cnc(-c4ccc(CNc5ccccc5)cc4)cn23)cc1`: the IC50 came to 6.07 µM and the IC90 is more than 8.12 µM.

On to `CCNC(=O)C1CCCN(Cc2noc(-c3ccccc3OC)n2)CC1` (stereo not given), for which the half-maximal inhibitory concentration (IC50) was more than 9.21 µM and the concentration for an effect of 90% (IC90) was more than 9.21 µM.

Take `CCOc1cccc(-c2cn3c(-c4ccc(Cl)cc4)cnc3cn2)c1`: the concentration for half-maximal inhibition (IC50) worked out at 8.98 µM and the IC90 was more than 9.43 µM.

Consider `CCNC(=O)C1CCCN(CCOc2ccc(Cl)cc2)CC1` (stereo not given), for which the half-inhibitory concentration (IC50) is more than 10.2 µM and the concentration for an effect of 90% (IC90) was more than 10.2 µM.

As for `CCOc1cccc(-c2cn3c(-c4ccsc4)cnc3cn2)c1`, the concentration for half-maximal inhibition (IC50) was found to be 5.53 µM and the IC90 was determined as 9.69 µM.

As for `NS(=O)(=O)c1ccc(CCNc2nn3c(-c4ccc(Cl)cc4)cnc3s2)cc1`, the half-inhibitory concentration (IC50) was more than 7.6 µM and the concentration for an effect of 90% (IC90) was more than 7.6 µM.

Take `CCNC(=O)C1(C)CCCN1C(=O)c1ccc(OC)cc1` (stereo not given): the IC50 is more than 11.4 µM and the concentration for an effect of 90% (IC90) is more than 11.4 µM.

As for `CC(C)=CCn1c2ccc(NC(=O)OCCF)cc2c(=O)n1C`, the IC50 was more than 10.3 µM and the 90% effect concentration (IC90) is more than 10.3 µM.

As for `COc1ccc(-c2cnc3cnc(-c4ccc(CNc5ccccc5)cc4)cn23)cn1`, the IC50 is 2.72 µM and the IC90 is 8.05 µM.

In the case of `COc1ccc(-c2cnc3cnc(-c4ccccc4C)cn23)cn1`, the 50% inhibitory concentration (IC50) is 2.21 µM and the 90% effect concentration (IC90) was 4.17 µM.

Take `COc1ccc(-c2nnc(Nc3ccc4c(c3)c(=O)n(C)n4CC=C(C)C)[nH]2)cc1`: the IC50 was more than 8.16 µM and the IC90 is more than 8.16 µM.

Turning to `COCCNC(=O)Cn1nnc(C)c1COc1ccc2ccccc2c1`, the half-maximal inhibitory concentration (IC50) is more than 9.31 µM and the IC90 was more than 9.31 µM.

With `COc1ccc(-c2cnc3c(NC(C)=O)cc(-c4ccc5[nH]ccc5c4)cn23)cc1OC`, the IC50 was more than 7.74 µM and the IC90 was more than 7.74 µM.

`OC[C@H]1O[C@@H](c2nc(-c3ccc4c(c3)CCO4)no2)[C@H](O)[C@@H]1O`: the IC50 is more than 10.3 µM and the IC90 was more than 10.3 µM.

In the case of `c1ccc2cc(-c3cnc4sc(NCc5ccncc5)nn34)ccc2c1`, the concentration for half-maximal inhibition (IC50) is more than 9.23 µM and the IC90 is more than 9.23 µM.

For `O=C(NC(c1ccccc1)c1ccccc1)[C@H]1C[C@H](O)[C@@H](CO)O1`, the IC50 is more than 10.1 µM and the 90% effect concentration (IC90) is more than 10.1 µM.

Take `CN(C)c1ccccc1-c1cn2c(-c3cccc(O)c3)cnc2cn1`: the IC50 is more than 9.99 µM and the IC90 was more than 9.99 µM.

As to `CCCNC(=O)C1(C)CCN(Cc2ccc3ccccc3n2)C1` (stereo not given), the concentration for half-maximal inhibition (IC50) was more than 10.6 µM and the IC90 is more than 10.6 µM.

Consider `CN(C)CCNC(=O)c1ccc(-c2cn3c(-c4cccc(Cl)c4)cnc3cn2)cc1`, for which the half-maximal inhibitory concentration (IC50) is more than 7.86 µM and the concentration for an effect of 90% (IC90) is more than 7.86 µM.

In the case of `CC(C)N1CCC(C)(C(=O)Nc2ccc3c(c2)C(=O)N(C)C3=O)C1` (stereo not given), the IC50 was more than 10 µM and the IC90 was more than 10 µM.

As for `CC(C)Oc1cccc(-c2cn3c(-c4ccccc4Cl)cnc3cn2)c1`, the half-inhibitory concentration (IC50) was more than 9.07 µM and the concentration for an effect of 90% (IC90) was more than 9.07 µM.

Turning to `CC(C)CNc1nn2c(-c3ccc(O)cc3)cnc2s1`, the IC50 was more than 11.4 µM and the concentration for an effect of 90% (IC90) was more than 11.4 µM.

With `CCC(=O)N1CCC1(C)C(=O)NCc1ccc2c(c1)OCO2` (stereo not given), the half-inhibitory concentration (IC50) was more than 10.8 µM and the 90% effect concentration (IC90) is more than 10.8 µM.

Regarding `Cn1cc(-c2cnc3cnc(-c4cccc(Cl)c4)cn23)cn1`, the concentration for half-maximal inhibition (IC50) was more than 10.7 µM and the IC90 was more than 10.7 µM.

`COCCNC(=O)C1(C)CCCN(C(=O)c2ccc(OC)cc2OC)C1` (stereo not given): the IC50 was more than 9.06 µM and the 90% effect concentration (IC90) was more than 9.06 µM.

On to `CCOC(=O)C1(C)CCCCN1C(=O)c1ccc(C(=O)OC)cc1` (stereo not given), for which the concentration for half-maximal inhibition (IC50) was more than 9.9 µM and the concentration for an effect of 90% (IC90) is more than 9.9 µM.

With `O=C(NCCO)c1ccc(-c2cn3c(-c4ccc(Oc5ccccc5)cc4)cnc3cn2)cc1`, the 50% inhibitory concentration (IC50) is more than 7.33 µM and the IC90 was more than 7.33 µM.

`CN(C)CCNC(=O)c1ccc(-c2cn3c(-c4ccsc4)cnc3cn2)cc1`: the half-maximal inhibitory concentration (IC50) was more than 8.43 µM and the concentration for an effect of 90% (IC90) is more than 8.43 µM.
